Assay results published in PMC10238325, “Optimization of antimicrobial peptides for the application against biocorrosive bacteria” (Applied Microbiology and Biotechnology, 2023).
Converted amounts (≈) assume the structure as drawn. Where a SMILES comes first, the peptide text is derived from it. Where no end group is shown, it is not given here.

Tests used:
[1] = test system: Desulfovibrio desulfuricans DSM 642; assay type: cell-based; settings: DSM 642, 48 h
Experimental: (§1) The following SRB were used: Desulfovibrio vulgaris DSM 644, Desulfovibrio desulfuricans DSM 642, and Desulfovibrio indonesiensis DSM 15121. The Postgate medium (DSMZ medium 63) with a modification of 0.004 g/L FeSO4 × 7 H2O and 0.3 g/L Tri-sodium citrate (and 2% NaCl for D. indonesiensis) was flushed with nitrogen gas. Each culture was subcultured 1:100. Cultivation occurred for 48 h, 37 °C (30 °C for D. desulfuricans), without shaking. The following SOB was used: Thiomonas intermedia DSM 18155. Therefore, the Thiomonas medium (DSMZ medium 35a) was used, subcultured 1:100, and cultivated for 48 h, 30 °C, 115 rpm. Escherichia coli K12 ATCC 25404 was grown in LB Lennox medium (Carl Roth GmbH & Co.KG Karlsruhe, Germany) for 18 h, 37 °C, 115 rpm and diluted 1:1000 in Mueller-Hinton broth (Carl Roth GmbH & Co.KG Karlsruhe, Germany). Incubation during the assay took place for 24 h, 37 °C, 115 rpm.
(§2) A stock solution of 1 mg/mL in milliQ from the respective peptide and a concentration range of 1000–1.95 μg/mL was prepared by serial 2-fold dilution. 20 μL of each test substance (n=3) per well was added to a 96-well microtiter plate (polystyrene). 100 μL of each bacteria suspension (start OD600: 0.001) was added to the well with test substance, as well as 120 μL as growth control (n=35) and 120 μL medium (n=1) as sterile control to an empty well. To avoid evaporation, all microtiter plates were cultivated in air-tight containers during the incubation period. Microtiter plates for testing on SRB were prepared in the anaerobic chamber (Coy Laboratory Products Inc. Grass Lake, United States of America) and cultivated in air-tight containers including Oxoid anaerobic bag (Thermo Fisher Scientific Inc. Waltham, United States of America) to ensure anaerobic conditions. The microtiter plates were measured before and after incubation at OD600, and the growth inhibition in % was determined with the following equation:1 inhibition%=ΔOD600testsubstance/ΔOD600growthcontrole∙100%
(§3) The minimum inhibitory concentration (MIC) describes the lowest concentration where no bacterial growth could be detected. Besides the MIC100, where a complete reduction of bacterial growth could be detected, other partial inhibitions such as MIC95 or MIC50, where 95% or 50% growth inhibition occurs, can be specified.

[2] = test system: Desulfovibrio vulgaris DSM 644; assay type: cell-based; settings: for MIC95 D. vulgaris: 95% growth inhibition, 96-well microdilution, 2-fold series 1000–1.95 μg/mL, n=3, OD600, modified Postgate medium, anaerobic
Experimental: as §1, §2, §3

[3] = test system: Desulfovibrio indonesiensis DSM 15121; experiment: MIC assay against D. indonesiensis; assay type: cell-based; settings: 95% growth inhibition; 96-well microdilution, n=3, OD600; modified Postgate medium with 2% NaCl, anaerobic, 48 h, 37 °C, without shaking
Experimental: as §1, §2, §3

[4] = in vitro; assay type: in vitro ADME, Desulfovibrio vulgaris; settings: for remaining at 48 h, 1 mg/mL / remaining at 168 h, 1 mg/mL: cells or culture medium
Experimental: The analysis of the peptides was performed on a RP-HPLC (Agilent 1100, detector: diode array detector G1315A, column: Phenomenex®-Aeris™ 2.6 μm Peptide XB-C18 100 Å,150 × 2.1 mm), and ESI-LC-MS was performed (Knauer, detector: Surveyor MSQ, column: Eurospher II 100-2 C18A, 100 × 2 mm, 2 μm). The gradient was performed with a flow rate of 0.25 mL/min from 99% of mobile phase A (0.1% TFA in milliQ) over 15 min to 95% of mobile phase B (0.1% TFA in acetonitrile), kept at 95% with B for 2 min, and equilibrated at 99% with A for another 3 min. 20 μL (RP-HPLC) and 10 μL (ESI-LC-MS) peptide solution (250 μg/mL in milliQ) was injected.
For the stability tests, a bacterial suspension (7 days old) of D. vulgaris was centrifuged at 5000 rpm for 10 min. 1 mg/mL peptide solution was prepared within the supernatant and incubated at 37 °C for 7 days. The respective aliquots (t=0, 48, 72, 168 h) were mixed 1:10 with quenching solution (milliQ + 0.08% trifluoroacetic acid) and analyzed in triplicates according to the protocol described above for RP-HPLC. In addition, after incubation in the supernatant (168 h), the peptide (P3.2.) was analyzed for activity using the MIC assay.

[5] = test system: Thiomonas intermedia DSM 18155; assay type: cell-based; settings: DSM 18155, 48 h
Experimental: as §1, §2, §3

[6] = test system: SRB; settings: ref Greene et al. [2006]; cited from earlier work
Excerpt: The current strategy to control microbial-influenced corrosion is based on biocides, which lead to fast resistance, requiring higher and higher concentrations to eradicate the bacteria. Alternative treatment strategies are based on additives like D-amino acids or chelates to biocides to reduce the required biocide concentration by a synergistic effect. However, these additives are not inhibitory on their own, and although a reduced biocide concentration is required, the presence of biocide is still necessary (Jia et al. [2017]; Wen et al. [2012]; Wen et al. [2009]). In this paper, a new method ...

Row | Compound | MIC50 D. desulfuricans [1] | MIC95 D. vulgaris ([2]; 48 h, 37 °C, without shaking) | MIC95 D. indonesiensis [3] | remaining at 48 h, 1 mg/mL [4] | remaining at 168 h, 1 mg/mL [4] | other results
1 | CC(C)C[C@H](NC(=O)[C@H](CC(C)C)NC(=O)[C@H](CCCCN)NC(=O)[C@H](CCCCN)NC(=O)[C@H](CC(C)C)NC(=O)[C@H](Cc1c[nH]c2ccccc12)NC(=O)[C@H](CCCCN)NC(=O)[C@H](Cc1c[nH]c2ccccc12)NC(=O)[C@H](CC(C)C)NC(=O)[C@H](CCCCN)NC(=O)[C@H](CCCCN)NC(=O)CCCCCCCN)C(N)=O [Peptide P3.3.] (HELM PEPTIDE1{[NCCCCCCCC(=O)[*:2]].K.K.L.W.K.W.L.K.K.L.L.[am]}$$$$V2.0) | 250 µg/mL (≈ 154 µM) | – | – | – | – | –
2 | CC(C)C[C@H](NC(=O)[C@H](CC(C)C)NC(=O)[C@H](CCCCN)NC(=O)[C@H](CCCCN)NC(=O)[C@H](CC(C)C)NC(=O)[C@H](Cc1c[nH]c2ccccc12)NC(=O)[C@H](CCCCN)NC(=O)[C@H](Cc1c[nH]c2ccccc12)NC(=O)[C@H](CC(C)C)NC(=O)[C@H](CCCCN)NC(=O)[C@H](CCCCN)NC(=O)CCCCCN)C(N)=O [Peptide P3.2.] (HELM PEPTIDE1{[NCCCCCC(=O)[*:2]].K.K.L.W.K.W.L.K.K.L.L.[am]}$$$$V2.0) | 250 µg/mL (≈ 157 µM) | 15.63 µg/mL (≈ 9.79 µM) | 125 µg/mL (≈ 78.3 µM) | 99% | 85% | MIC50 D. vulgaris after incubation in supernatant ([2]; DSM 644, 168 h): 31.25 µg/mL (≈ 19.6 µM); MIC95 D. vulgaris after incubation in supernatant ([2]; peptide (1 mg/mL) first incubated 168 h in D. vulgaris supernatant, then dilution series, 48 h, 37 °C, without shaking): 62.5 µg/mL (≈ 39.2 µM)
3 | KKLWKWLKKLL-NH2 [Peptide P2.1.] | 250 µg/mL | – | – | – | – | –
4 | FKKFWKWFRRF [Peptide S6L3-33] | 500 µg/mL | – | – | 93% | 85% | MIC50 T. intermedia [5]: 62.5 µg/mL
5 | CC[C@H](C)[C@H](NC(=O)[C@H](CCCNC(=N)N)NC(=O)[C@H](CS)NC(=O)[C@H](CC(C)C)NC(=O)[C@@H](N)CCCNC(=N)N)C(=O)N[C@H](C(=O)N[C@H](C(=O)N[C@H](C(=O)N[C@@H](CCCNC(=N)N)C(=O)N[C@H](C(=O)N[C@@H](CS)C(=O)N[C@@H](CCCNC(=N)N)C(=O)O)C(C)C)[C@@H](C)CC)C(C)C)C(C)C [Bactenecin] (H-RLCRIVVIRVCR-OH; N-terminus and C-terminus assumed) | 250 µg/mL (≈ 168 µM) | 62.5 µg/mL (≈ 42.1 µM) | 31.25 µg/mL (≈ 21 µM) | 41% | 17% | MIC50 T. intermedia [5]: 62.5 µg/mL (≈ 42.1 µM); stability in supernatant (in words) [4]: significant stability loss after only 48 h
6 | KKLLKWLKKLL [Peptide L5K5W] | >1000 µg/mL | – | – | 91% | 80% | MIC50 T. intermedia [5]: 500 µg/mL
7 | RRLWRWLRRLL [Peptide P1.1.] | 1000 µg/mL | – | – | – | – | –
8 | CCCCCCCCCC(=O)N[C@@H](CCCCN)C(=O)N[C@@H](CCCCN)C(=O)N[C@@H](CC(C)C)C(=O)N[C@@H](Cc1c[nH]c2ccccc12)C(=O)N[C@@H](CCCCN)C(=O)N[C@@H](Cc1c[nH]c2ccccc12)C(=O)N[C@@H](CC(C)C)C(=O)N[C@@H](CCCCN)C(=O)N[C@@H](CCCCN)C(=O)N[C@@H](CC(C)C)C(=O)N[C@@H](CC(C)C)C(N)=O [Peptide P3.4.] (HELM PEPTIDE1{[CCCCCCCCCC(=O)[*:2]].K.K.L.W.K.W.L.K.K.L.L.[am]}$$$$V2.0) | 125 µg/mL (≈ 76.3 µM) | 31.25 µg/mL (≈ 19.1 µM) | 31.25 µg/mL (≈ 19.1 µM) | – | – | –
9 | KKLWKWLKKLL [Peptide L5K5W-W4I6] | >1000 µg/mL | – | – | 94% | 86% | –
10 | O=S(=O)([O-])[O-].OC[P+](CO)(CO)CO.OC[P+](CO)(CO)CO [THPS, tetrakis(hydroxymethyl)phosphonium sulfate] | – | – | – | – | – | concentration required to inhibit SRB growth [6]: 40 µg/mL
11 | FFGKVLKLIRKIF [DASamP1] | 500 µg/mL | – | – | 99% | – | MIC50 T. intermedia [5]: 125 µg/mL
12 | Ac-KKLWKWLKKLL-NH2 [Peptide P3.1.] | 500 µg/mL | 31.25 µg/mL | 125 µg/mL | – | – | –
13 | CCCCCCCCCCCCCC(=O)N[C@@H](CCCCN)C(=O)N[C@@H](CCCCN)C(=O)N[C@@H](CC(C)C)C(=O)N[C@@H](Cc1c[nH]c2ccccc12)C(=O)N[C@@H](CCCCN)C(=O)N[C@@H](Cc1c[nH]c2ccccc12)C(=O)N[C@@H](CC(C)C)C(=O)N[C@@H](CCCCN)C(=O)N[C@@H](CCCCN)C(=O)N[C@@H](CC(C)C)C(=O)N[C@@H](CC(C)C)C(N)=O [Peptide P3.6.] (HELM PEPTIDE1{[CCCCCCCCCCCCCC(=O)[*:2]].K.K.L.W.K.W.L.K.K.L.L.[am]}$$$$V2.0) | 125 µg/mL (≈ 73.8 µM) | 125 µg/mL (≈ 73.8 µM) | 62.5 µg/mL (≈ 36.9 µM) | – | – | –
14 | CCCCCCCCCCCC(=O)N[C@@H](CCCCN)C(=O)N[C@@H](CCCCN)C(=O)N[C@@H](CC(C)C)C(=O)N[C@@H](Cc1c[nH]c2ccccc12)C(=O)N[C@@H](CCCCN)C(=O)N[C@@H](Cc1c[nH]c2ccccc12)C(=O)N[C@@H](CC(C)C)C(=O)N[C@@H](CCCCN)C(=O)N[C@@H](CCCCN)C(=O)N[C@@H](CC(C)C)C(=O)N[C@@H](CC(C)C)C(N)=O [Peptide P3.5.] (HELM PEPTIDE1{[CCCCCCCCCCCC(=O)[*:2]].K.K.L.W.K.W.L.K.K.L.L.[am]}$$$$V2.0) | 62.5 µg/mL (≈ 37.5 µM) | 62.5 µg/mL (≈ 37.5 µM) | 31.25 µg/mL (≈ 18.8 µM) | – | – | –
